Assay results as given in publication PMC7551591, “The Effect of Resveratrol or Curcumin on Head and Neck Cancer Cells Sensitivity to the Cytotoxic Effects of Cisplatin” (Nutrients, 2020).

Columns and labels:
Assay type in all cases: cell-based, human
PE/CA-PJ49 tumor cells = test: Annexin V-FITC/PI apoptosis flow cytometry, tumor cells; conditions: 24 h
Experimental: (§1) The apoptosis assay was carried out with the Annexin V-FITC kit using the manufacturer’s (BD Pharmingen) protocol. Treated and untreated 1 × 10^6 cells/mL were resuspended in cold binding buffer and staining simultaneously with 5 μL FITC-Annexin V (green fluorescence) and 5 μL propidium iodide (PI) in the dark, at room temperature for 15 min. Then, 400μL of Annexin V binding buffer was added and 10,000 cells/sample were acquired using a BD Canto II flow cytometer. The analysis was performed using DIVA 6.2 software in order to discriminate viable cells (FITC^−PI^−) from necrotic cells […] and early apoptosis (FITC^+PI^−) from late apoptosis.
(§2) Apoptosis can be seen as an efficient method of preventing malignant transformation, as it ensures the removal of cells which present with genetic alterations. Deficient apoptosis can promote the development of cancer, both through the accumulation of cells found during division and the blocking of the removal of cells with high malignant potential genetic variations. The factors which determine the cells to follow one of three possible pathways are not yet known – the start of apoptosis after cellular injury, the repair of the lesion or the continuation of the cellular cycle. Many therapeutical agents have anti-tumoral effects generated by their capacity to activate the apoptotic process. […] The flow cytometric analysis was performed using DIVA 6.2 software and allowed to discriminate viable cells (FITC^−PI^− = Q3) from necrotic cells (FITC^−PI^+ = Q1) and early apoptosis (FITC^+PI^− = Q4) from late apoptosis (FITC^+PI^+ = Q2).

HUVEC normal cells = test: Annexin V-FITC/PI apoptosis flow cytometry, normal cells; conditions: 24 h; for Apoptoza Tarzie = Q2 (%): late apoptosis; for Apoptoza Totală = Q2+Q4 (%): total apoptosis
Experimental: as §1, §2

[1] = as above; conditions: human, HUVEC normal cells, read-out: Q3 (viable cells, FITC−PI−)
Experimental: as §1, §2

[2] = system: p21 protein (CIP1/CDKN1A) expression in PE/CA-PJ49; test: Total p21 protein ELISA in cell lysates, tumor cells; conditions: 24 h; for n-fold p21 Protein Expression PE/CA-PJ49: vs control
Experimental: After incubation, cells were washed twice with ice-cold PBS, scraped, pelleted and lysed in RIPA buffer (Pierce) supplemented with protease inhibitor cocktail (Roche) and phosphatase inhibitor (Roche) for 30 min on ice. The lysates were transfered into microcentrifuge tubes and centrifuged at 14,000× g for 5 min at 4 °C followed by sonication (10–15 s × 3). The supernatants were collected into clean microcentrifuge tubes and stored at −80 °C. Lysates protein concentration were quantified by BCA protein assay kit (Thermo Scientific) and aliquots of 50 μg of total cell lysate were used for ELISA assay.
DuoSetR IC ELISA-Human Total p21/CIP1/CDKN1A(: DYC1047-2) was purchased from R&D Systems Inc. and contains the basic components required for the development of sandwich ELISAs to measure human p21 protein also known as CIP1 and CDKN1A in cell lysates. An immobilized capture antibody specifically binds human p21. After washing away unbound material, a biotinylated detection antibody specific for human p21 is used to detect the captured protein, utilizing a standard Streptavidin-HRP format. All experiments were performed in triplicates and absorbance was measured at λ = 450 nm using a Dynex plate reader.
In cancer development and evolution p21 protein might acts as an oncogene or tumor suppressor and for this reason it could be an important player in processes such as the cancer aggressiveness or the response to chemotherapy. In this study, using ELISA assay we analyzed the expression level of p21 in the tumor cells (PE-CA/PJ49) compared to a normal cells (HUVEC).

[3] = system: P21 (CDKN1A) gene expression in HUVEC; test: Real-time PCR of CDKN1A (P21) gene, normal cells; conditions: 24 h, reference gene HPRT, 2^-ΔΔCt vs control
Description: In order to isolate of total RNA from treated or untreated cells was used TRIzol reagent (Invitrogen)-a monophasic solution of phenol and guanidine isothiocyanate. During the isolation phases, the TRIzol reagent maintains RNA integrity, while disrupting cells and dissolving cell components. The addition of chloroform followed by centrifugation ensures the separation phase of the solution into an aqueous phase and an organic phase. RNA remains in the aqueous phase and is recovered by isopropanol precipitation. The RNA pellet washed once with 75% ice-cold ethanol and entrifuged at 10,000× g for 5 min at 4 °C. The […] is redissolved in nuclease-free water and incubating in a 60 °C water bath for 10 min. The concentration of isolated RNA was assessed using a NanoDrop spectrophotometer ([…], Montchanin, DE, USA). RNA purity was determined by A260/A280 ratios (an […] ratio as close as possible to 2 indicates the presence of highly purified RNA). Reverse transcription of messenger RNA molecules was performed using the High-capacity cDNA Reverse Transcription Kit from Applied Biosystems, using non-specific, randomic primers, following the manufacturer's instructions (Table 1). […] The obtained cDNA was stored at 4 °C and further used in the amplification reaction Real-Time PCR (RT-PCR). […] The samples were analyzed using the formula 2^-ΔΔCt.

## COc1cc(/C=C/C(=O)CC(=O)/C=C/c2ccc(O)c(OC)c2)ccc1O [CRM, Curcumin]
PE/CA-PJ49 tumor cells; 15 μM CRM
  Early Apoptosis = Q4 (%): 19.1%
  Late Apoptosis = Q2 (%): 9.1%
  Necrosis = Q1 (%): 6.7%
  Total Apoptosis = Q2 + Q4 (%): 28.2%
PE/CA-PJ49 tumor cells; Homo sapiens, 15 μM CRM, read-out: Q3 (viable cells, FITC−PI−)
  viability at 15 µM: 65.1%
HUVEC normal cells; 15 μM CRM
  Early Apoptosis = Q4 (%): 6.7%
  Necrosis = Q1 (%): 2.6%
  Apoptoza Tarzie = Q2 (%): 0.5%
  Apoptoza Totală = Q2+Q4 (%): 7.2%
[1]; 15 μM CRM
  viability at 24 h, 15 μM: 90.2%
[2]; 15 μM CRM
  p21 pg/mL PE/CA-PJ49: 941 pg/mL
  n-fold p21 Protein Expression PE/CA-PJ49: 1.51
[3]; 15 μM CRM
  n-fold P21 gene expression HUVEC: 1.39

## Oc1ccc(C=Cc2cc(O)cc(O)c2)cc1 [RSV, 3,5,4′-trihydroxystilbene]
PE/CA-PJ49 tumor cells; 40 μM RSV
  Early Apoptosis = Q4 (%): 17.7%
  Late Apoptosis = Q2 (%): 9.5%
  Necrosis = Q1 (%): 5.4%
  Total Apoptosis = Q2 + Q4 (%): 27.2%
PE/CA-PJ49 tumor cells; Homo sapiens, 40 μM RSV, read-out: Q3 (viable cells, FITC−PI−)
  viability at 40 µM: 67.4%
HUVEC normal cells; 40 μM RSV
  Early Apoptosis = Q4 (%): 4.8%
  Necrosis = Q1 (%): 1.2%
  Apoptoza Tarzie = Q2 (%): 0.3%
  Apoptoza Totală = Q2+Q4 (%): 5.1%
[1]; 40 μM RSV
  viability at 24 h, 40 μM: 93.7%
[2]; 40 μM RSV
  p21 pg/mL PE/CA-PJ49: 1550 pg/mL
  n-fold p21 Protein Expression PE/CA-PJ49: 2.48
[3]; 40 μM RSV
  n-fold P21 gene expression HUVEC: 0.36
